{
  "source": "patent US20060021075A1",
  "about": "“Group 1 CD1 transgenic mice and their uses” (priority 2004, published 2006)",
  "system": "BM-DCs",
  "experiment": "Flow cytometric analysis of CD1a, b, c expression on BM-DCs of hCD1Tg mice",
  "format": "cell-based, mouse",
  "settings": "BM-DCs from hCD1Tg mice cultured in GM-CSF and IL-4",
  "data": [
    {"substance": "TNF-α", "values": [
      {"measurement": "Upregulation of CD1a, b, and c expression on BM-DCs", "result": "cannot be upregulated"}
    ]},
    {"substance": "IFN-γ: cytokine tested for upregulation of CD1 on BM-DCs", "values": [
      {"measurement": "Upregulation of CD1a, b, and c expression on BM-DCs", "result": "cannot be upregulated"}
    ]}
  ]
}
